From patent USRE33375E, “Treatments employing drug-containing matrices for introduction into cellular lesion areas” (Matrix Pharmaceuticals, Inc., priority 1988, dated 1990)
Where a name gives a salt, the structure may show the parent alone. Marks after values point to notes of the source that are not given here.

Assays:
[1] = test system: experimental murine fibrosarcoma (RIF-1 cells); assay: Regrowth delay of the treated transplantable murine fibrosarcoma; format: in vivo, murine; female C3H mice
Description: times their initial treatment volume (150 mm^3). Increasing values
indicate enhanced therapeutic effect.
When the tumors reached a volume of 150 mm^3, the mice were assigned randomly to the following groups (4-6 mice per group): (1) untreated controls; (2) 5-FU (100 mg/kg), i.p., 0.1 ml/mouse; (3) 5-FU (100 mg/kg), i.t., 0.1 ml/tumor; (4) 5-FU-BC (100 mg 5-FU/kg dispersed in BC (18 mg/ml)), i.t., 0.1 ml/tumor; 5-FU-EPI-BC (100 mg 5-FU/kg) 5 mg EPI/kg dispersed in BC (18 mg/ml), i.t., 0.1 ml/tumor.
In the next study doxorubicin-HCl (ADM) (Adriamycin) was studied using the above-described protocol. The adriamycin in distilled water (4.45 mg/ml) was mixed with 36 mg/ml bovine collagen (BC) 1:1 to yield a composition ratio of 2.25 mg adriamycin:18 mg BC/ml.
^2 Tumor Regrowth Delay (RD). Time (days) required for tumors to grow
to 3 × its original treatment volume (~150 mm^3).
Increasing RD indicate increased tumor cell killing.

[2] = test system: uninjected contralateral fibrosarcoma (RIF-1 cells); assay: Regrowth delay of the uninjected contralateral fibrosarcoma; format: in vivo, murine; female C3H mice
Description: A transplantable experimental murine fibrosarcoma (2×10^5 RIF-1 cells) was grown intradermally in the flank of 5 month old female C3H mice (Bantin and Kingman, Fremont, Calif.). Cis-diamine dichloroplatinum (II) (cis-Pt) (Sigma Chemical Co., St. Louis, Mo.) was dissolved in sterile saline at concentrations of 0.8, 1.6 and 3.2 mg/ml and mixed 1:1 with bovine collagen (BC) (36 mg/ml) in PBS 20 mM phosphate, 140 mM NaCl (Collagen Corp., Palo Alto, Calif.). Doses of 2, 4 and 8 mg/kg host of cis-Pt were delivered in 0.1 ml of the collagenous drug mixture to the center of the tumor growing in the flank (intratumorally, i.t.), and the tumor measured. The growth of a second uninjected tumor on the opposing flank of the same mouse was also measured. In addition, cis-Pt dissolved in PBS without collagen was administered intraperitoneally (i.p.) to other tumor-bearing mice (4 tumors/group) to monitor the effects on tumor growth of the drug without collagen. Furthermore, the effect of bovine collagen on tumor growth was also studied by injection of 0.1 ml of collagen, (18 mg/ml) into the experimental fibrosarcomas, as previously described. The growth of the tumors was monitored three times per week by caliper measurements of three perpendicular diameters of the tumor and calculating tumor volume from the formula
*Regrowth Delay determined as the time (days) for tumors to grow to four
times their initial treatment volume (150 mm^3).
(§1) In the next study 5-fluorouracil (5-FU) (Sigma Chem. Co., St. Louis, Mo.) with and without epinephrine (Sigma) suspended in saline by sonication (60 mg/ml) and mixed 1:1 with bovine collagen (BC) (Collagen Corp., Palo Alto, Calif.) (36 mg/ml) or normal saline. The subjects were 25 gm 12 week-old female C3H/He mice (Bantin and Kingman, Fremont, Calif.) bearing the transplatable experimental murine fibrosarcoma propagated intradermally as previously described.
(§2) The adriamycin in distilled water (4.45 mg/ml) was mixed with 36 mg/ml bovine collagen (BC) 1:1 to yield a composition ratio of 2.25 mg adriamycin:18 mg BC/ml.
^3 Contralateral Tumor RD (CRD). Time (days) required for untreated
contralateral tumors to grow to 3× its original treatment volume
(~150 mm^3). Decreasing RD indicate enhanced regionalization of
drug injected when compared to RD.
(§3) In the next study vincristine (VCR) was dissolved in saline (0.6 mg/ml) by sonication and mixed 1:1 with bovine collagen (36 mg/ml). Otherwise, the procedure was the same.
In the next study a combination of bleomycin sulfate (Sigma Chemical Co., St. Louis, Mo.) (15 mg/kg) and epinephrine (5 mg/kg) employed in a bovine collagen composition were evaluated for antitumor effect in the transplantable experimental murine fibrosarcoma model previously described. […]

white blood cells = assay: White blood cell count in tumor-bearing mice
Description: as §1
(§4) On day four post-treatment, white blood cells (wbc) were counted by sampling blood from the tail, dilution in Turk's solution and counting in a hemocytometer. On day eight post-treatment, skin reaction is overlying tissue was graded for untoward response.
as §2
^4 White Blood Cells measured on Day 4 post injection by sampling fro
the tail of treatment mice.
as §3
In the next study a combination of bleomycin sulfate (Sigma Chemical Co., St. Louis, Mo.) (15 mg/kg) and epinephrine (5 mg/kg) employed in a bovine collagen composition were evaluated for antitumor effect in the transplantable experimental murine fibrosarcoma model previously described.
(§5) In another experiment the curative potential of drug matrix formulations was evaluated in the experimental murine fibrosarcoma model. Briefly, female C3H/He mice bearing a single experimental tumor produced as previously described were treated at weekly intervals with formulations containing 5-fluorouracil (50 mg/kg); bovine collagen BC (Collagen Corp., Palo Alto, Calif.); epinephrine (Sigma Chemical Co., St. Louis, Mo.); and PBS. WBC's were determined on Day 4 following each treatment cycle and skin reaction on […] after each treatment cycle. Treatment was discontinued for all grops when 3 of 4 experiment groups reach 4×initial tumor volume. When tumors reached a volume of 150 mm^3 the mice were randomly assigned to the following groups:
(§6) 2. 5-FU-PBS i.p.; 5-FU (23 mg/ml) was combined 1:1 with PBS; 0.1 ml injected/mouse i.p.
(§7) 3. 5-FU-PBS i.t.; 5-FU (23 mg/ml) was combined 1:1 with PBS; 0.1 ml injected/tumor i.t.
(§8) 4. 5-FU-BC i.t.; 5-FU (23 mg/ml) was combined 1:1 with bovine collagen (36 mg/ml); 0.1 ml injected i.t.
(§9) In another experiment the influence of matrix composition on antitumor activity of 5-fluorouracil (100 mg/kg) was evaluated in the experimental murine fibrosarcoma model previously described. 5-FU (Sigma Chemical Co., St. Louis, Mo.) was combined as described below with bovine collagen BC (Collagen Corp., Palo Alto, Calif.); bovin fibronogen (95% clottable, Sigma), bovine thrombin (2000NIH units/mg, Sigma) and Ringer's Solution For Injection (RFI, Abbott Labs., North Chicago, Ill.). When tumors reached a volume of 150 mm^3 the mice (Bantin and Kingman, Fremont, Calif.) were assigned randomly to the following groups, (3-4 mice/group):
(§10) 3. 5-FU-Fibrinogen: 5-FU (36 mg/ml) combined 1:1 with the fibrinogen preparation described in 2 above, 0.1 ml i.t.
(§11) 4. 5-FU-BC-Fibrinogen: 5-FU (36 mg/ml) combined 1:1 with a fibrinogen-BC preparation consisting of fibrinogen (30 mg/ml); BC (36 mg/ml) dispersed in RFI containing 1 NIH unit of thrombin activity/ml, 0.1 ml i.t.

skin overlying the tumor = assay: Skin reaction of the skin overlying the tumor
Description: as §4
(§12) The skin reaction is scored as follows: […]
as §12, §5, §9, §10, §11
In the next experiment 5-fluorouracil-matrix implant in combination with X-rays was evaluated. Single RIF-1 tumors were grown on the back of female C3H mice (12-16 weeks) (Bantin and Kingman, Fremont, Calif.) as previously described. When the tumors reached volumes of 150 mm^3, they were divided into the following groups, (4-6 mice/group):
(§13) Tumor bearing mice were irradiated in lead jigs exposing only the tumor and overlying skin with a 250 kVp X-ray machine at a dose rate of 120 rad/min. The tumors of the treated and untreated mice were measured three times per week and assayed for regrowth delay and skin reactions as previously described.

[3] = Acute animal toxicity / survival after injection; conditions: 15 mg/kg
Description: as §1, §2

[4] = test system: experimental murine fibrosarcoma; assay: Tumor regrowth delay on weekly treatment (curative potential); format: in vivo, murine; female C3H/He mice
Description: as §5, §6, §7, §8

RIF-1 tumor = RIF-1 tumor regrowth delay, 5-fluorouracil-matrix implant in combination with X-rays; format: in vivo, female C3H mice; conditions: 5-FU 75 mg/Kg, i.p.
Description: In the next experiment 5-fluorouracil-matrix implant in combination with X-rays was evaluated. […] When the tumors reached volumes of 150 mm^3, they were divided into the following groups, (4-6 mice/group):
2. X-rays (1000 rad.) alone
3. Collagen-matrix (CM) i.t. 5 min. before X-rays
4. 5-Fluorouracil (5-FU) (75 mg/Kg) i.p.
6. 5-FU i.p. 5 min before X-rays
as §13

[5] = BLM 15 mg/kg, i.p., mean ± S.E.
[6] = BLM 15 mg/kg, i.t. (± EPI 5 mg/kg), mean ± S.E.
[7] = 5-FU 100 mg/kg, i.p., mean ± S.E.
[8] = 5-FU 100 mg/kg, i.t. (± EPI 5 mg/kg), mean ± S.E.
[9] = 5-FU 50 mg/kg on Days 0, 8 and 16, i.p.
[10] = 5-FU 50 mg/kg on Days 0, 8 and 16, i.t. (± Epinephrine 5 mg/kg)

## CC[C@]1(O)C[C@H]2CN(CCc3c([nH]c4ccccc34)[C@@](C(=O)OC)(c3cc4c(cc3OC)N(C=O)[C@H]3[C@@](O)(C(=O)OC)[C@H](OC(C)=O)[C@]5(CC)C=CCN6CC[C@]43[C@@H]65)C2)C1 [VCR, vincristine]
[1]; VCR 2 mg/kg, i.p.
  Tumor Regrowth Delay: 10.6 ± 2.0 days
[2]; VCR 2 mg/kg, i.p.
  Untreated Contralateral Regrowth Delay: 10.6 ± 2.0 days
White blood cells; VCR 2 mg/kg, i.p.
  White Blood Cells/mm^3: 7.4 ± 1.3 Cells/mm^3 (× 10^3)
Skin overlying the tumor; VCR 2 mg/kg, i.p., scored as in the preceding studies (0-3)
  Skin Reaction: 0.6 ± 0.4

## bleomycin sulfate [BLM]
[1]; [5]
  Tumor Regrowth Delay: 7.5 ± 0.9 days
[1]; [6]
  Tumor Regrowth Delay: 8.9 ± 0.6 days
[2]; [5]
  Untreated Contralateral Regrowth Delay: 7.5 ± 0.9 days
[2]; [6]
  Untreated Contralateral Regrowth Delay: 7.0 ± 0.7 days

## COc1cccc2c1C(=O)c1c(O)c3c(c(O)c1C2=O)C[C@@](O)(C(=O)CO)C[C@@H]3O[C@H]1C[C@H](N)[C@H](O)[C@H](C)O1 [Free ADM, doxorubicin-HCl]
[1]; ADM 15 mg/kg, i.t., time to 3 × original treatment volume (~150 mm^3)
  Tumor Regrowth Delay, Treated: 13.7 ± 1.7 days
[2]; ADM 15 mg/kg, i.t., untreated contralateral tumor, time to 3× original treatment volume (~150 mm^3)
  Tumor Regrowth Delay, Contralateral: 8.3 ± 0.75 days
White blood cells; ADM 15 mg/kg, i.t., Day 4 post injection
  White Blood Cells/mm^3: 4.1 ± 0.69 Cells/mm^3 (× 10^3)
Skin overlying the tumor; ADM 15 mg/kg, i.p., Day 8 post injection, 0 = no effect, 1 = superficial inflammation, 2 = scab, 3 = ulcer
  Skin Reaction: 1.5 ± 0.5
Skin overlying the tumor; ADM 15 mg/kg, i.t., Day 8 post injection, 0 = no effect, 1 = superficial inflammation, 2 = scab, 3 = ulcer
  Skin Reaction: 2.0
[3]; intratumoral injection
  toxicity of intratumoral injection: non-toxic
[3]; mouse, in vivo
  survival: 100%
[3]; mouse, in vivo, ip
  mortality: 75%
  survival: 25%

## O=c1[nH]cc(F)c(=O)[nH]1 [5-FU, 5-fluorouracil]
[1]; [7]
  Tumor Regrowth Delay: 13.1 ± 1.4 days
[1]; [8]
  Tumor Regrowth Delay: 14.5 ± 0.9 days
[2]; [7]
  Untreated Contralateral Regrowth Delay: 13.1 ± 1.4 days
[2]; [8]
  Untreated Contralateral Regrowth Delay: 11.1 ± 0.6 days
White blood cells; [9]
  WBC D-12: 109 ± 28
White blood cells; [10]
  WBC D-12: 107 ± 25
White blood cells; 5-FU 100 mg/kg, i.p., day four post-treatment
  White Blood Cells/mm^3: 4.5 ± 0.6 Cells/mm^3 (× 10^3)
White blood cells; 5-FU 100 mg/kg, i.t. (± EPI 5 mg/kg), day four post-treatment
  White Blood Cells/mm^3: 3.5 ± 0.5 Cells/mm^3 (× 10^3)
Skin overlying the tumor; [9]
  Skin Reaction D-8: 1.2 ± 1.1
Skin overlying the tumor; [10]
  Skin Reaction D-8: 1.0 ± 0.6
Skin overlying the tumor; 5-FU 75 mg/Kg, i.p. + X-rays (1000 rad), scored as previously described (0-3)
  Skin Reaction: 2
Skin overlying the tumor; 5-FU 75 mg/Kg, i.p., no X-rays, scored as previously described (0-3)
  Skin Reaction: 2
Skin overlying the tumor; 5-FU 100 mg/kg, i.p., Day 8, 0 = no effect, 1 = superficial inflammation, 2 = scab, 3 = ulcer
  Skin Reaction: 0.7 ± 0.4
Skin overlying the tumor; 5-FU 100 mg/kg, i.t. (± EPI 5 mg/kg), Day 8, 0 = no effect, 1 = superficial inflammation, 2 = scab, 3 = ulcer
  Skin Reaction: 0
[4]; [9]
  Tumor Regrowth 4 ×: 10.3 ± 1.3 days
[4]; [10]
  Tumor Regrowth 4 ×: 14.9 ± 3.8 days
RIF-1 tumor; 5 min before X-rays (1000 rad)
  2× Tumor Regrowth Delay: 12.6 ± 2.8 days
RIF-1 tumor; no X-rays
  2× Tumor Regrowth Delay: 8.5 ± 1.1 days
